These results are taken from patent publication US20160228446A1, “Combination Drug Therapy” (GLAXOSMITHKLINE LLC, priority 2013, published 2016).

Assay [1] deals with LNCaP prostate cancer cells. As to the kind of experiment: Cell proliferation assay (CellTiter-Glo, total cellular ATP). The settings on record: single agent; charcoal-stripped serum, 0.1 nM R1881, 7 days; percentage of DMSO-treated control. The class given is cell-based.
Experimental: Cells were grown in charcoal-stripped serum to deplete potential androgen from serum. Under these conditions, cell growth is dependent on exogenous androgen (e.g., R1881).
Androgen-dependent prostate cancer cell line, LNCaP, were grown in RPMI 1640 culture medium supplemented with 10% charcoal-stripped fetal bovine serum for 24 hours in 96-well tissue culture plates at a density of 1,000 cells per well. Cells were treated with various concentrations of compounds A or B alone and in combination in the presence of synthetic androgen (R1881, Sigma-Aldrich, St. Louis, Mo.). After 7 days, total cellular ATP was measured using the CellTiter-Glo Luminescent Cell Viability Assay (Promega, Madison, Wis.) on an EnVision plate reader. Background counts from wells containing no cells were subtracted and the data is presented as a percentage of the DMSO-treated control cells.
In the next assay the test system is LNCaP cells. Briefly: Luminescent caspase 3/7 assay. The class given is cell-based. Particulars: single agent 5 uM, five days, normalized to ATP signal.
In a further assay the test system is phospho-S6. Briefly: Immunoblot assay, phospho-S6. Particulars: LNCaP cells, Compound B 3 or 10 uM alone or with compound A 3 uM, 0.1 nM R1881, six hours. The class given is cell-based.
A further assay deals with phospho-AKT. Briefly: Immunoblot assay, AKT phosphorylation. The class given is cell-based. The settings on record: LNCaP cells, Compound B 3 or 10 uM, 0.1 nM R1881, six hours. How it is done:
LNCaP cells were treated with Compound B (3 or 10 uM) alone or in presence of compound A (3 uM), all in presence of 0.1 nM synthetic androgen (R1881).
LNCaP cells were grown in RPMI 1640 culture medium supplemented with 10% charcoal-stripped fetal bovine serum for 48 hours in 6-well tissue culture plates at a density of 500,000 cells per well. Cells were treated with the indicated compounds for six hours, washed with PBS, and whole cell lysates were prepared in RIPA buffer (Teknova, Hollister, Calif.). Cell lysates were clarified by centrifugation at 20,000 relative centrifugal force, 4° C., and protein was quantified using the BCA Protein Assay Kit (Pierce, Rockford, Ill.). Equal amounts of protein lysates were separated by SDS-PAGE using a 4-12% Bis-Tris polyacrylamide gel (Life Technologies) and transferred to a nitrocellulose membrane and incubated with antibodies against total and phospho-AKT, phospho-PRAS40, total and phospho-S6, androgen receptor, and FKBP5. Following incubation with primary antibody, blots were washed and incubated with IRDye-800 anti-mouse or IRDye-680 anti-rabbit antibodies for 1 h. Following thorough washing, blots were analyzed using an infrared imaging system (LI-COR).

The next assay addresses androgen receptor (Homo sapiens, UniProt P10275). Particulars: cited from earlier work.
The subject of assay [2] is prostate cancer xenograft models. Particulars: in vivo; cited from earlier work.

androgen receptor, sequence (P10275 whole entry, species assumed): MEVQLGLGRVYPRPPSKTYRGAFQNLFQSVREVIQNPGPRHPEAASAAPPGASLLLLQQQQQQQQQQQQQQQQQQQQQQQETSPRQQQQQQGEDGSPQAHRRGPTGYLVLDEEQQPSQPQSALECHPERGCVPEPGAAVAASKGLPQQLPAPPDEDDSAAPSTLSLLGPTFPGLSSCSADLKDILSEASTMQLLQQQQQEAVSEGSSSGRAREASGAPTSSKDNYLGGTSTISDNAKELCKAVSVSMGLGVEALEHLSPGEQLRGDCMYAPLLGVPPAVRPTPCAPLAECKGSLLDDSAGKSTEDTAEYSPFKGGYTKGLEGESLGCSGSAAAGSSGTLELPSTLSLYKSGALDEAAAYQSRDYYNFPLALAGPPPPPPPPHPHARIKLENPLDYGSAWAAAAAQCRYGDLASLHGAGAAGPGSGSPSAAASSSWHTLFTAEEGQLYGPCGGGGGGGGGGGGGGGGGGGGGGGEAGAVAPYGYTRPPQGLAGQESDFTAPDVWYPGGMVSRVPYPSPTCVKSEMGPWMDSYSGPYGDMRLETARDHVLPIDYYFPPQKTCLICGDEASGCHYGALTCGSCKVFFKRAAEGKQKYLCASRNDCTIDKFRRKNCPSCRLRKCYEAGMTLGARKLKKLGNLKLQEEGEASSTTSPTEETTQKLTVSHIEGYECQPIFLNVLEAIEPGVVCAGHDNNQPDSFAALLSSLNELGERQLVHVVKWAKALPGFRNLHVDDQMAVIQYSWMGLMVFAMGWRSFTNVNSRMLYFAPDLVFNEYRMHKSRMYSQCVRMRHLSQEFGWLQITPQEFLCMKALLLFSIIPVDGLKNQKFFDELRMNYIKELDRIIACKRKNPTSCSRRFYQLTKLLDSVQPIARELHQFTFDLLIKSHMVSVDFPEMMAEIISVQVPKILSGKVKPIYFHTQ
Experimental for LNCaP cells: Caspase 3/7 activity was normalized and plotted as a percentage of the untreated control samples. Data for 2 independent experiments (N=1, N=2) is shown and represents mean±std dev from duplicate treatments. Tumor cells were seeded in 96-well white tissue culture plates in 100 μL growth media (media with 10% FBS) or CSS media (media with 10% charcoal stripped fetal bovine serum). LNCaP cells were seeded at a density of 1,000 cells per well. Approximately 24 hr after plating, duplicate or triplicate plates of cells were treated with indicated compounds for both luminescent caspase-3/7 and CTG readings. At the end of the 5 days of incubations, half of the plates were lysed and caspase-3/7 activity was measured using the Caspase-Glo® 3/7 Assay (Promega) according to the manufacturer's protocol. Caspase-Glo reagent was added to each plate, incubated for at least 45 minutes, and luminescent signal was read on the EnVision Multilabel Plate Reader with a 0.1 sec integration time. The remaining plates were lysed and ATP levels were measured using the CTG assay. The caspase-3/7 signal was normalized to the ATP signal. The normalized values were expressed as a percentage of the control wells.

In the case of `CNC(=O)c1ccc(N2C(=S)N(c3ccc(C#N)c(C(F)(F)F)c3)C(=O)C2(C)C)cc1F` [Compound A, 4-(3-(4-Cyano-3-(trifluoromethyl)phenyl)-5,5-dimethyl-4-oxo-2-thioxoimidazolidin-1-yl)-2-fluoro-N-methylbenzamide], the LNCaP cell growth result in assay [1] was “inhibited”. Further, in the assay with LNCaP cells, the “induction of caspase 3/7 activity” value is on record as “minimal induction”.

As for `Cc1c(Cn2c(C)nc3c(C(=O)O)cc(N4CCOCC4)cc32)cccc1C(F)(F)F` [Compound B, 2-methyl-1-{[2-methyl-3-(trifluoromethyl)phenyl]methyl}-6-(4-morpholinyl)-1H-benzimidazole-4-carboxylic acid], the phospho-S6 result in the assay with phospho-S6 is “inhibition of phospho-S6”. For the same molecule, the AKT phosphorylation result with phospho-AKT is “inhibited AKT phosphorylation”. In addition, the LNCaP cell growth entry in assay [1] was “inhibited the growth”. Moreover, the “induction of caspase 3/7 activity” value in the assay on LNCaP cells is “minimal induction”.

As to `CC(O)c1cc(C(=O)N[C@@H](C)Cn2ccc(-c3ccc(C#N)c(Cl)c3)n2)[nH]n1` (some centres unmarked) [ODM-201], on androgen receptor, the “affinity for the androgen receptor” value is on record as “high affinity”. Also, in assay [2], the “anti-proliferative activity in prostate cancer xenograft models” value is listed as “anti-proliferative activity”.
